Measurements taken from PMC9224751 (International Journal of Molecular Sciences, 2022).
Read-outs that look alike come from different tables or passages of the source.

Tests used:
[1] = system: SARS-CoV-2 Wuhan type (SARS-CoV-2PR-1); assay: SARS-CoV-2 replication in Vero B4 cells, virions in supernatant by qRT-PCR; type: cell-based; conditions: for IC50: MOI 2 × 10^−2
Caco-2 cells = assay: WST-1 cell viability assay; conditions: uninfected Caco-2, three days
[2] = system: SARS-CoV-2 Wuhan type (SARS-CoV-2PR-1); assay: SARS-CoV-2 replication in Caco-2 cells, qRT-PCR; type: cell-based; conditions: Severe acute respiratory syndrome coronavirus 2, 3 dpi
SARS-CoV-2 Alpha = assay: VoC replication in Calu-3 cells, qRT-PCR; type: cell-based; conditions: Severe acute respiratory syndrome coronavirus 2
[3] = system: SARS-CoV-2 Omicron (SARS-CoV-2OM); assay: VoC replication in Calu-3 cells, qRT-PCR; type: cell-based
SARS-CoV-2 Delta = assay: VoC replication in Calu-3 cells, qRT-PCR; type: cell-based; conditions: for IC50 / IC90: Severe acute respiratory syndrome coronavirus 2, […]
[4] = system: SARS-CoV-2 VoCs Alpha, Beta, Gamma, Delta, and Omicron; assay: VoC replication in Calu-3 cells, summary over all VoCs, qRT-PCR; type: cell-based; conditions: for IC90: Severe acute respiratory syndrome coronavirus 2, read-out: IC90, range over VoCs
SARS-CoV-2 Beta = assay: VoC replication in Calu-3 cells, qRT-PCR; type: cell-based; conditions: Severe acute respiratory syndrome coronavirus 2
SARS-CoV-2 Gamma = assay: VoC replication in Calu-3 cells, qRT-PCR; type: cell-based; conditions: Severe acute respiratory syndrome coronavirus 2
SARS-CoV-2 Wuhan type = assay: SARS-CoV-2 replication, summary over Vero B4, A549-ACE2+/TMPRSS2+, Caco-2 and Calu-3 cells, qRT-PCR; type: cell-based; conditions: for IC90: Severe acute respiratory syndrome coronavirus 2, Wuhan type, Vero B4, A549-ACE2+/TMPRSS2+, Caco-2, Calu-3, read-out: IC90 values, range among all investigated cell lines
Calu-3 cells = assay: WST-1 cell viability assay; type: cell-based, human; conditions: uninfected Calu-3, three days
Method: (§1) To control for potential unspecific effects of PAM treatment on cell viability, water-soluble tetrazolium salt (WST)-1 assays were performed in uninfected Vero B4, A549-ACE2/TMPRSS2+, Caco-2, or Calu-3 cells under otherwise identical conditions as the virus infection experiments. […] Staurosporine (StS) was used as a positive control at a concentration of 1 µM. DMSO as a solvent control was added in the same amount as the respective highest concentration of PAM.
(§2) Following treatment with different concentrations of PAM (PAM concentrations are indicated at the x-axis) for three days, the influence on cell viability was measured by water-soluble tetrazolium salt (WST)-1 assay. […] Staurosprine (StS, 1 µM) was used as a positive control. DMSO as solvent control was added in the same amount as in the highest concentration of PAM (100 µM (A,B); 1000 µM (C,D)).
(§3) Viability of uninfected and treated cells was assessed by the water-soluble tetrazolium salt (WST)-1 assay (Roche, Basel, Switzerland) according to the manufacturer’s instructions. Cells were treated for 72 h with various inhibitors according to the protocols of the infection experiments.

[5] = system: SARS-CoV-2 Wuhan type (SARS-CoV-2PR-1); assay: SARS-CoV-2 replication in Calu-3 cells, qRT-PCR; type: cell-based; conditions: for IC50 / IC90: Severe acute respiratory syndrome coronavirus 2, Calu-3, Wuhan type, 3 dpi
[6] = system: SARS-CoV-2 Wuhan type (SARS-CoV-2PR-1); assay: SARS-CoV-2 replication in A549-ACE2+/TMPRSS2+ cells, qRT-PCR; type: cell-based; conditions: Severe acute respiratory syndrome coronavirus 2, 3 dpi
[7] = system: SARS-CoV-2 Wuhan Type, Delta, or Omicron; assay: Combination treatment in Calu-3 cells, summary over the three viruses, qRT-PCR; type: cell-based; conditions: single treatment
[8] = system: uninfected Vero B4, A549-ACE2/TMPRSS2+, Caco-2, or Calu-3 cells; assay: WST-1 cell viability assay, all cell types; type: cell-based; conditions: three days
Method: as §1, §2, §3

[9] = system: SARS-CoV-2 Wuhan type (SARS-CoV-2PR-1); assay: Quantitative immunofluorescence of SARS-CoV-2 nucleoprotein (NP) in infected Calu-3 cells; type: cell-based; conditions: 30 h treatment, increasing concentrations
Method: In addition, and to confirm the results obtained from the qRT-PCR analysis of the cell culture supernatants, Calu-3 cells were infected with the wildtype isolate SARS-CoV-2PR-1 at the same MOI (Figure 1) and subsequently treated with different concentrations of PAM for 30 h. Cells were fixed and further stained with a SARS-CoV-2 nucleoprotein (NP)-specific antibody. RDV was used as a positive control at 1 µM (Figure S1, see Supplementary Materials).
For immunostaining, infected Calu-3 cells were fixed with 4% PFA for 15 min. Following a washing step with PBS, cells were blocked and permeabilized overnight with 1% BSA in PBS (+0.2% Triton) and afterwards stained with a polyclonal rabbit anti-NP antibody (GeneTex, Cat. No. GTX135357, Irvine, CA, USA) for 24 h. […] For analysis, immunostaining was quantitative analyzed with a PerkinElmer VictorX4 reader (488 nm) (PerkinElmer, Waltham, MA, USA) and pictures were taken using a CTL-ELISPOT reader (Cellular Technology Ltd., Shaker Heights, OH, USA).
Figure S1. […] Quantitative immunofluorescent microscopy was performed to detect the viral nucleocapsid protein in Calu-3 cells 30 hrs post-infection with SARS-CoV-2 Wuhan type using an Alexa488-conjugated anti-SARS-CoV-2 nucleo-protein (NP)-antibody or DAPI as a control. […]

[10] = parameters: method as in PMID 34580086; conditions: use of Pio, after a COVID-19 diagnosis, cited from earlier work
SARS-CoV-2 [11] = conditions: Calu-3; published; cited from earlier work
SARS-CoV-2 [12] = conditions: Vero E6 cells; published; cited from earlier work
[13] = Severe acute respiratory syndrome coronavirus 2, Vero B4, Wuhan type, 3 dpi
[14] = Severe acute respiratory syndrome coronavirus 2, Calu-3, Calu-3, […]
[15] = Severe acute respiratory syndrome coronavirus 2, Calu-3

For `Cn1c(=O)c(Oc2ccc(F)cc2F)cc2cnc(NC(CCO)CCO)nc21` [PAM, Pamapimod], the IC90 ([1]; Severe acute respiratory syndrome coronavirus 2, Vero B4, Wuhan type, 3 dpi, read-out: IC90) was about 2000 nM, the IC50 [1, 13] was about 200 nM and the TD50 (Caco-2 cells) was ~ 1000 µM. It also gave an IC50 [2] of about 250 nM, an IC90 [2] of about 3000 nM and an IC50 (SARS-CoV-2 Alpha) of about 250 nM. The IC90 (SARS-CoV-2 Alpha) was about 3000 nM, the IC90 ([3]; Calu-3, […]) was about 3000 nM and the IC50 [3, 14] was about 250 nM. It also gave an IC90 [3, 14] of about 2000 nM, an inhibition at 0.01 µM ([3]; Severe acute respiratory syndrome coronavirus 2, PAM 0.01 µM, Pio 0 µM, Calu-3, Fig 7F) of 3.6% and an inhibition at 0.05 µM ([3]; Severe acute respiratory syndrome coronavirus 2, PAM 0.05 µM, Pio 0 µM, Calu-3, Fig 7F) of 28.6%. The inhibition at 0.01 µM (SARS-CoV-2 Delta; Severe acute respiratory syndrome coronavirus 2, PAM 0.01 µM, Pio 0 µM, Fig 7D) was 2.86%, the inhibition at 0.05 µM (SARS-CoV-2 Delta; Severe acute respiratory syndrome coronavirus 2, PAM 0.05 µM, Pio 0 µM, Fig 7D) was 27.6% and the IC50 (SARS-CoV-2 Delta) was about 250 nM. The IC90 (SARS-CoV-2 Delta) was about 4000 nM, the IC50 ([4]; Severe acute respiratory syndrome coronavirus 2) was about 250 nM and the IC90 [4] was 3000 to 4000 nM. It also gave an IC50 (SARS-CoV-2 Beta) of about 250 nM, an IC90 (SARS-CoV-2 Beta) of about 3000 nM and an IC50 (SARS-CoV-2 Gamma) of about 250 nM. The IC90 (SARS-CoV-2 Gamma) was about 3000 nM, the IC90 (SARS-CoV-2 Wuhan type) was 2000 to 3000 nM and the “production of progeny virions” value (SARS-CoV-2 Wuhan type; at a concentration of 6.25 µM, all infected cell lines) was “almost completely blocked”. For the same molecule, the TD50 (Calu-3 cells) was ~ 1000 µM, the inhibition at 0.01 µM [5, 15] was 10.5% and the inhibition at 0.05 µM [5, 15] was 33.9%. It also gave an IC50 [5] of about 100 nM, an IC90 [5] of about 3000 nM and an IC50 [6] of about 200 nM. The IC90 [6] was about 2000 nM, the “reduction of virus replication, max.” value ([7]; 50 nM PAM, Figure 7B) was at most 33% and the “impact on cell viability” value ([8]; concentrations up to 100 µg/mL) was “no impact on cell viability”. For the same molecule, the “SARS-CoV-2 replication within infected cells (NP staining normalized to DAPI)” value [9] was “effectively suppressed SARS-CoV-2 replication in a dose-dependent manner”.

For `CCc1ccc(CCOc2ccc(CC3SC(=O)NC3=O)cc2)nc1` (centres unmarked) [Pio, Pioglitazone], the IC90 ([1]; Severe acute respiratory syndrome coronavirus 2, Vero) is listed as about 8000 nM, the IC50 [1, 13] is listed as about 500 nM and the hospital admissions ([10]; vs. 28.2% comparator) is listed as 20.0%. For the same molecule, the “RR of hospital admissions” value [10] was 0.71, the TD50 (Caco-2 cells) was 500 to 1000 µM and the IC50 [2] was about 700 nM. The IC50 (SARS-CoV-2 Alpha) was about 800 nM, the IC90 (SARS-CoV-2 Alpha) was about 15000 nM and the IC50 ([3]; Calu-3, […]) was about 700 nM. It also gave an IC50 [3, 14] of about 900 nM, an IC90 [3, 14] of about 10000 nM and an inhibition at 0.02 µM ([3]; Severe acute respiratory syndrome coronavirus 2, PAM 0 µM, Pio 0.02 µM, Calu-3, Fig 7F) of 1.44%. It also gave an inhibition at 0.05 µM ([3]; Severe acute respiratory syndrome coronavirus 2, PAM 0 µM, Pio 0.05 µM, Calu-3, Fig 7F) of 12.2%, an inhibition at 0.1 µM ([3]; Severe acute respiratory syndrome coronavirus 2, PAM 0 µM, Pio 0.1 µM, Calu-3, Fig 7F) of 27.1% and an inhibition at 0.3 µM ([3]; Severe acute respiratory syndrome coronavirus 2, PAM 0 µM, Pio 0.3 µM, Calu-3, Fig 7F) of 44%. It also gave an inhibition at 0.02 µM (SARS-CoV-2 Delta; Severe acute respiratory syndrome coronavirus 2, PAM 0 µM, Pio 0.02 µM, Fig 7D) of 0.48%, an inhibition at 0.05 µM (SARS-CoV-2 Delta; Severe acute respiratory syndrome coronavirus 2, PAM 0 µM, Pio 0.05 µM, Fig 7D) of 12.2% and an inhibition at 0.1 µM (SARS-CoV-2 Delta; Severe acute respiratory syndrome coronavirus 2, PAM 0 µM, Pio 0.1 µM, Fig 7D) of 32.4%. The inhibition at 0.3 µM (SARS-CoV-2 Delta; Severe acute respiratory syndrome coronavirus 2, PAM 0 µM, Pio 0.3 µM, Fig 7D) was 46.9%, the IC50 (SARS-CoV-2 Delta) was about 500 nM and the IC90 (SARS-CoV-2 Delta) was about 12000 nM. The IC90 [4] was 12000 to 15000 nM, the IC50 (SARS-CoV-2 Beta) was about 900 nM and the IC90 (SARS-CoV-2 Beta) was about 15000 nM. It also gave an IC50 (SARS-CoV-2 Gamma) of about 700 nM, an IC90 (SARS-CoV-2 Gamma) of about 15000 nM and an IC90 (SARS-CoV-2 Wuhan type) of 8000 to 10000 nM. For the same molecule, the SARS-CoV-2 replication (SARS-CoV-2 Wuhan type; at ~80 µM, all test settings) was “completely suppresses”, the TD50 (Calu-3 cells) was 500 to 1000 µM and the inhibition at 0.02 µM [5, 15] was 4.64%. The inhibition at 0.05 µM [5, 15] was 15.9%, the inhibition at 0.1 µM [5, 15] was 36.9% and the inhibition at 0.3 µM [5, 15] was 48.3%. For the same molecule, the IC50 [5] was about 800 nM, the IC90 [5] was about 10000 nM and the IC50 [6] was about 1000 nM. The “reduction of viral replication, max.” value ([7]; 300 nM Pio, Figure 7D) was at most 48% and the “impact on cell viability” value ([8]; concentrations up to ~80 µM) was “no impact on cell viability”.

For `CCC(CC)COC(=O)[C@H](C)N[P@](=O)(OC[C@H]1O[C@@](C#N)(c2ccc3c(N)ncnn23)[C@H](O)[C@@H]1O)Oc1ccccc1` [Remdesivir], the IC90 (SARS-CoV-2 [11]) is given as 1280 nM and the IC90 (SARS-CoV-2 [12]) is given as 3000 nM.
